Laboratory results from patent publication US7098211B2, “Compounds having simultaneous ability to block L-type calcium channels and to inhibit phosphodiesterase type 3 activity” (Artesian Therapeutics, Inc., priority 2002, dated 2006).
Several values for one entry are separate records, joined by “and”; a condition that tells them apart may be missing. Equal values may be shown once.

Experiments:
[1] = target: T1, Human platelet cyclic AMP phosphodiesterase (PDE-3) (Homo sapiens, UniProt Q14432); experiment: cAMP PDE-3 inhibitory activity assay; assay type: biochemical; details: 10 minutes at 30° C., n=3 per concentration
T1 construct: Human platelet cyclic AMP phosphodiesterase was prepared; from tissue; host or cells: human platelets
T1 sequence (Q14432 whole entry): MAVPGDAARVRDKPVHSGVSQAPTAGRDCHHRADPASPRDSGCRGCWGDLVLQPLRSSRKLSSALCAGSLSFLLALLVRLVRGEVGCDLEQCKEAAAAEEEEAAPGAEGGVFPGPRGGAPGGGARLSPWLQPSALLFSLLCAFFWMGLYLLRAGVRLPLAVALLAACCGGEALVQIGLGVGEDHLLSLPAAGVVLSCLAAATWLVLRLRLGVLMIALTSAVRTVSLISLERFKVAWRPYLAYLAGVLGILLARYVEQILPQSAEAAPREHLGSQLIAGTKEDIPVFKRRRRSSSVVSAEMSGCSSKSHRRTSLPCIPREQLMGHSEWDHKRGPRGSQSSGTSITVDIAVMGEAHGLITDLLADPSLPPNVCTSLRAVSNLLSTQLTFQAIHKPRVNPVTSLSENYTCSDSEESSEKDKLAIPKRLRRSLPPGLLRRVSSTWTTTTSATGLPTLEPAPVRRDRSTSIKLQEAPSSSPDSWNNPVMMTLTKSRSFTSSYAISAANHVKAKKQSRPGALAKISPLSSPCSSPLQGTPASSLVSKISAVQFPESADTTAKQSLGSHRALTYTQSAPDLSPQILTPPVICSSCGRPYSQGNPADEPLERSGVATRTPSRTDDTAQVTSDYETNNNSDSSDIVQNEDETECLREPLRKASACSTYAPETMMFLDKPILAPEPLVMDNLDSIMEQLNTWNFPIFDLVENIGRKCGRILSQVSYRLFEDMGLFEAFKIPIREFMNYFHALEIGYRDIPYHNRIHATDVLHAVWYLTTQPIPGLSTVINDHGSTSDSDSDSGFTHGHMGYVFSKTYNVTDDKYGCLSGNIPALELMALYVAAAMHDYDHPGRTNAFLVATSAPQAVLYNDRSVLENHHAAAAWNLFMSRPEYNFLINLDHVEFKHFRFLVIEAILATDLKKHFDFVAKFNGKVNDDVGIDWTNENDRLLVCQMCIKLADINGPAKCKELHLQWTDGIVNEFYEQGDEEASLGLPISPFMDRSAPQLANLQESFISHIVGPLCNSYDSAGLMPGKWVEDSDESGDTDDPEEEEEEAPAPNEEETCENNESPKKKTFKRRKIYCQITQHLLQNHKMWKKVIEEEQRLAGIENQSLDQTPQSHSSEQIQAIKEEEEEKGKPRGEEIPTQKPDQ
Protocol: Human platelet cyclic AMP phosphodiesterase was prepared according to the method of Alvarez et al. (Mol. Pharmacol. 1986, 29, 554). The PDE incubation medium contained 10 mM Tris-HCl buffer, pH 7.7, 10 mM MgSO4, and 1 μM […] (0.2 μCi) in a total volume of 1.0 mL. Test compounds were dissolved in dimethyl sulfoxide (DMSO) immediately prior to addition to the incubation medium, and the resulting mixture was allowed to stand for 10 minutes prior to the addition of enzyme. Following the addition of PDE, the contents were mixed and incubated for 10 minutes at 30° C. Three assays each were performed for each of five test compound concentrations, the mean of the determinations (n=3) at each concentration was plotted, and IC50 values were determined graphically.

[2] = system: guinea pig papillary muscle; experiment: Contraction-relaxation in guinea pig papillary muscle; assay type: cell-based; details: FIG. 1
Protocol: Male guinea pigs (400–500 g) were killed by cervical dislocation and the hearts were quickly removed, immersed in ice-cold, and oxygenated in Kreb's solution containing 113.1 mM NaCl, 4.6 mM KCl, 2.45 mM CaCl2, 1.2 mM MgCl2, […], and 10.0 mM glucose; pH 7.4 with 95% O2–5% CO2. The ventricles were opened and papillary muscles were removed with chordae tandineae and a base of surrounding tissue intact. The tendinous ends of the muscles were ligated with silk thread, and the muscles were mounted in vertical, double-jacketed organ baths containing 10 mL of oxygenated Kreb's solution kept at 37° C. […]
Following a 45-minute equilibration period under a 1 gram tension, control contractions were elicited by stimulating the muscle using stainless steel field electrodes at a frequency of 1.0 Hz, 2.0 ms duration. […] Control contraction-relaxation cycles were recorded for 30 seconds continuously. […] A series of washout contractions was recorded following a change of solution. When the amplitude of contraction returned to that measured in control conditions, a single concentration of positive control was then tested on the tissue in the same manner as Compound 5 and milrinone.
Contraction amplitude as well as the time courses of contraction and relaxation were quantified. […]

[3] = system: paced dog model of congestive heart failure; experiment: Paced dog model of congestive heart failure; assay type: in vivo; details: for ventricular tachycardia: all tested dosages
Protocol: Compound 8 was evaluated in a paced dog model of congestive heart failure. Pacing-induced heart failure in the dog produces alterations in heart physiology and molecular signaling similar to what is seen in the failing human heart, making this an appropriate model to test compounds that can potentially improve calcium homeostasis and heart failure physiology. Heart failure was induced by increasing the heart rate to 220–240 beats per minute (bpm) for a six week period. The degree of heart failure was documented by both pressure measurements and echocardiogram (changes in contractility, ejection fraction, ventricular relaxation, fractional area shortening, isovolumic relaxation time). Compound 8 or the milrinone were administered following the induction of heart failure.

COC(=O)C1=C(C)NC(COCCNC(=O)CCCOc2ccc3[nH]c(=O)ccc3c2)=C(C(=O)OC)C1c1ccccc1[N+](=O)[O-] (stereo not drawn) [Compound 6, methyl 5-(methoxycarbonyl)-2-methyl-4-(2-nitrophenyl)-6-({2-[4-(2-oxo(6-hydroquinolyloxy))butanoylamino]ethoxy}methyl)-1,4-dihydropyridine-3-carboxylate]
IC50 [1]: 270 nM and 110 nM

CCOC(=O)C1=C(COCCNC(=O)CCCOc2ccc3[nH]c(=O)ccc3c2)NC(C)=C(C(=O)OC)C1c1ccccc1Cl (stereo not drawn) [Compound 5, methyl 4-(2-chlorophenyl)-5-(ethoxycarbonyl)-2-methyl-6-({2-[4-(2-oxo(6-hydroquinolyloxy))butanoylamino]ethoxy}methyl)-1,4-dihydropyridine-3-carboxylate]
IC50 [1]: 300 nM | inotropic effect (muscle contractility) ([2]; cumulative concentrations, stimulated at 1.0 Hz): positive inotropic effect (increase in muscle contractility) in a dose-dependent manner | maximum increase in contractility compared with milrinone ([2]; guinea pig papillary muscle): less than the maximum increase produced by milrinone

COC(=O)C1=C(C)NC(COCCCOc2ccc3[nH]c(=O)ccc3c2)=C(C(=O)OC)C1c1ccccc1Cl (stereo not drawn) [Compound 7, methyl 4-(2-chlorophenyl)-5-(methoxycarbonyl)-2-methyl-6-{[3-(2-oxo(6-hydroquinolyloxy))propoxy]methyl}-1,4-dihydropyridine-3-carboxylate]
IC50 [1]: 340 nM and 420 nM

COC(=O)C1=C(C)NC(COCCNC(=O)COc2ccc(C3=NNC(=O)CC3)cc2Cl)=C(C(=O)OC)C1c1ccccc1Cl (stereo not drawn) [Compound 8, methyl 6-[(2-{2-[2-chloro-4-(6-oxo(1,4,5-trihydropyridazin-3-yl))phenoxy]acetylamino}ethoxy)methyl]-4-(2-chlorophenyl)-5-(methoxycarbonyl)-2-methyl-1,4-dihydropyridine-3-carboxylate]
contractility (dp/dt max) and ejection fraction, maximal increase relative to that produced by milrinone ([3]; % of that produced by milrinone, FIG. 2): 53–61% | ventricular relaxation (dp/dt min, Tau and isovolumic relaxation time), maximal increase relative to that produced by milrinone ([3]; % of that produced by milrinone, FIG. 3): 63–88% | contractility (dp/dt max) and ejection fraction ([3]; dogs in heart failure, FIG. 2): dose-dependent response | ventricular relaxation (dp/dt min, Tau and isovolumic relaxation time) ([3]; dogs in heart failure, FIG. 3): increased ventricular relaxation in a dose-dependent manner | ventricular tachycardia ([3]; dogs in heart failure): no ventricular tachycardia | in vivo inhibition of PDE-3 and calcium channel antagonism ([3]; systemic administration, dogs in heart failure): demonstrated in vivo inhibition of PDE-3 and calcium channel antagonism | QT prolongation ([3]; under acute conditions): no apparent QT prolongation | IC50 [1]: 80 nM

Cc1[nH]c(=O)c(C#N)cc1-c1ccncc1 [milrinone, reference compound]
ventricular tachycardia ([3]; dogs in heart failure): demonstrated ventricular tachycardia

COC(=O)C1=C(C)NC(COCCNC(=O)COc2ccc3[nH]c(=O)ccc3c2)=C(C(=O)OC)C1c1ccccc1Cl (stereo not drawn) [Compound 12, methyl 4-(2-chlorophenyl)-5-(methoxycarbonyl)-2-methyl-6-({2-[2-(2-oxo(6-hydroquinolyloxy))acetylamino]ethoxy}methyl)-1,4-dihydropyridine-3-carboxylate]
IC50 [1]: 240 nM

CCOC(=O)C1=C(COCCNC(=O)COc2ccc3[nH]c(=O)ccc3c2)NC(C)=C(C(=O)OC)C1c1ccccc1Cl (stereo not drawn) [Compound 11, methyl 4-(2-chlorophenyl)-5-(ethoxycarbonyl)-2-methyl-6-({2-[2-(2-oxo(6-hydroquinolyloxy))acetylamino]ethoxy}methyl)-1,4-dihydropyridine-3-carboxylate]
IC50 [1]: 100 nM

CCOC(=O)C1=C(COCCNC(=O)COc2ccc(C3=NNC(=O)CC3)cc2Cl)NC(C)=C(C(=O)OC)C1c1ccccc1Cl (stereo not drawn) [Compound 9, methyl 6-[(2-{2-[2-chloro-4-(6-oxo(1,4,5-trihydropyridazin-3-yl))phenoxy]acetylamino}ethoxy)methyl]-4-(2-chlorophenyl)-5-(ethoxycarbonyl)-2-methyl-1,4-dihydropyridine-3-carboxylate]
IC50 [1]: 48 nM

COC(=O)C1=C(C)NC(COCCNC(=O)CCCOc2ccc3[nH]c(=O)ccc3c2)=C(C(=O)OC)C1c1ccccc1Cl (stereo not drawn) [Compound 10, methyl 4-(2-chlorophenyl)-5-(methoxycarbonyl)-2-methyl-6-({2-[4-(2-oxo(6-hydroquinolyloxy))butanoylamino]ethoxy}methyl)-1,4-dihydropyridine-3-carboxylate]
IC50 [1]: 270 nM
